Test results taken from ChEMBL document CHEMBL4477225, “Development of a cell viability assay to assess drug metabolite structure-toxicity relationships” (Bioorg Med Chem Lett, 2016).

Legend:
Settings in all cases: recombinant enzyme
Cytochrome P450 2D6 [1] = target: T1, Cytochrome P450 2D6 (Homo sapiens, UniProt P10635); assay: Drug activation in human Hep3B cells assessed as human CYP2D6-mediated drug metabolism-induced cytotoxicity measured as decrease in cell viability at 132.2 uM pre-incubated with BSO for 18 hrs followed by incubation with compound for 3 hrs in presence of NADPH measured after 24 hrs in absence of compound, CYP3A4 and NADPH by cell titer-glo luminescence assay relative to BSO alone; assay type: ADME, cell-based
T1 sequence (P10635 whole entry): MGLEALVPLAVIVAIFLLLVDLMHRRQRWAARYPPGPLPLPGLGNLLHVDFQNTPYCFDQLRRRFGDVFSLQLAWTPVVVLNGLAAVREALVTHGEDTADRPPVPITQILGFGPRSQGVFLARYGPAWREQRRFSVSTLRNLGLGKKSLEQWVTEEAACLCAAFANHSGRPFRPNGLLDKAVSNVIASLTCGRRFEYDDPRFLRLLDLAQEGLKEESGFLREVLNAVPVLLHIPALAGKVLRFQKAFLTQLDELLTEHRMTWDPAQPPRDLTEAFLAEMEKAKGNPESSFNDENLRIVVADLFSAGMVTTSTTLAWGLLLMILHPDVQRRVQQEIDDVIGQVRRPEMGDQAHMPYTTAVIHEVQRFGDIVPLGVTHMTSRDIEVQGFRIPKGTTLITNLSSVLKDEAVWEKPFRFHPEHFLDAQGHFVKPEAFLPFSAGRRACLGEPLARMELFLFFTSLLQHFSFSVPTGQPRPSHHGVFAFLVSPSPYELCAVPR

Cytochrome P450 2C9 [2] = target: T2, Cytochrome P450 2C9 (Homo sapiens, UniProt P11712); assay: Drug activation in human Hep3B cells assessed as human CYP2C9-mediated drug metabolism-induced cytotoxicity measured as decrease in cell viability at 139.9 uM pre-incubated with BSO for 18 hrs followed by incubation with compound for 3 hrs in presence of NADPH measured after 24 hrs in absence of compound, CYP3A4 and NADPH by cell titer-glo luminescence assay relative to BSO alone; assay type: ADME, cell-based
T2 sequence (P11712 whole entry): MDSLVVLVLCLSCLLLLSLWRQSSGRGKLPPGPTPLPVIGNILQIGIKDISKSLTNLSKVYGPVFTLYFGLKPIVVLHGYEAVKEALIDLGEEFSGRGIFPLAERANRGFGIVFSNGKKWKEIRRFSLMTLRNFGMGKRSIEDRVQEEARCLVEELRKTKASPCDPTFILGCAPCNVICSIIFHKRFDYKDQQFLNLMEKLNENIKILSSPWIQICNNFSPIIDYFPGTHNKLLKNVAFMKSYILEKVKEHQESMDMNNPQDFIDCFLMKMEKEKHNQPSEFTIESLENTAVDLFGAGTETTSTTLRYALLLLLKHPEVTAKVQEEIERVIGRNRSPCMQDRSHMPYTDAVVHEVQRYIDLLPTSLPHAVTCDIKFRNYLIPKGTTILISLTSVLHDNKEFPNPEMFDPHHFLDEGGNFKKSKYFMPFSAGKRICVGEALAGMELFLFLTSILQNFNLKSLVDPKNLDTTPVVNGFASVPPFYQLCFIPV

Cytochrome P450 3A4 [3] = target: T3, Cytochrome P450 3A4 (Homo sapiens, UniProt P08684); assay: Drug activation in human Hep3B cells assessed as human CYP3A4-mediated drug metabolism-induced cytotoxicity measured as decrease in cell viability at 131.8 uM pre-incubated with BSO for 18 hrs followed by incubation with compound for 3 hrs in presence of NADPH measured after 24 hrs in absence of compound, CYP3A4 and NADPH by cell titer-glo luminescence assay relative to BSO alone; assay type: ADME, cell-based
T3 sequence (P08684 whole entry): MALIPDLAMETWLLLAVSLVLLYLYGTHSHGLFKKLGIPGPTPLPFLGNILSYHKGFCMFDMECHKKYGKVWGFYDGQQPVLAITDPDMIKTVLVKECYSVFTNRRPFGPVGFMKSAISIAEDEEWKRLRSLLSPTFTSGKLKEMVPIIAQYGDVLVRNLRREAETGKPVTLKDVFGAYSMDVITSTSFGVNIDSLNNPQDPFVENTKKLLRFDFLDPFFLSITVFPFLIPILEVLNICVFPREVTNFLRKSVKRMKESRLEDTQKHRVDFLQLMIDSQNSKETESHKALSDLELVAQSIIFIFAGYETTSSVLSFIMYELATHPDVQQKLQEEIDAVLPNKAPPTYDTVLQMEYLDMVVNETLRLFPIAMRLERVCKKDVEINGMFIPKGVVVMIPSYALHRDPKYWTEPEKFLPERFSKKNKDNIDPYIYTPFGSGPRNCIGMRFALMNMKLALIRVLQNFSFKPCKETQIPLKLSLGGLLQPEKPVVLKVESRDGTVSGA

Cytochrome P450 2D6 [4] = target: T1, Cytochrome P450 2D6; assay: Drug activation in human Hep3B cells assessed as human CYP2D6-mediated drug metabolism-induced cytotoxicity measured as decrease in cell viability at 194 uM pre-incubated with BSO for 18 hrs followed by incubation with compound for 3 hrs in presence of NADPH measured after 24 hrs in absence of compound, CYP3A4 and NADPH by cell titer-glo luminescence assay relative to BSO alone; assay type: ADME, cell-based
Cytochrome P450 3A4 [5] = target: T3, Cytochrome P450 3A4; assay: Drug activation in human Hep3B cells assessed as human CYP3A4-mediated drug metabolism-induced cytotoxicity measured as decrease in cell viability at 36.8 uM pre-incubated with BSO for 18 hrs followed by incubation with compound for 3 hrs in presence of NADPH measured after 24 hrs in absence of compound, CYP3A4 and NADPH by cell titer-glo luminescence assay relative to BSO alone; assay type: ADME, cell-based
Cytochrome P450 2D6 [6] = target: T1, Cytochrome P450 2D6; assay: Drug activation in human Hep3B cells assessed as human CYP2D6-mediated drug metabolism-induced cytotoxicity measured as decrease in cell viability at 300 uM pre-incubated with BSO for 18 hrs followed by incubation with compound for 3 hrs in presence of NADPH measured after 24 hrs in absence of compound, CYP3A4 and NADPH by cell titer-glo luminescence assay relative to BSO alone
Cytochrome P450 3A4 [7] = target: T3, Cytochrome P450 3A4; assay: Drug activation in human Hep3B cells assessed as human CYP3A4-mediated drug metabolism-induced cytotoxicity measured as decrease in cell viability at 6.5 uM pre-incubated with BSO for 18 hrs followed by incubation with compound for 3 hrs in presence of NADPH measured after 24 hrs in absence of compound, CYP3A4 and NADPH by cell titer-glo luminescence assay relative to BSO alone; assay type: ADME, cell-based
Cytochrome P450 2C9 [8] = target: T2, Cytochrome P450 2C9; assay: Drug activation in human Hep3B cells assessed as human CYP2C9-mediated drug metabolism-induced cytotoxicity measured as decrease in cell viability at 300 uM pre-incubated with BSO for 18 hrs followed by incubation with compound for 3 hrs in presence of NADPH measured after 24 hrs in absence of compound, CYP3A4 and NADPH by cell titer-glo luminescence assay relative to BSO alone
Cytochrome P450 3A4 [9] = target: T3, Cytochrome P450 3A4; assay: Drug activation in human Hep3B cells assessed as human CYP3A4-mediated drug metabolism-induced cytotoxicity measured as decrease in cell viability at 300 uM pre-incubated with BSO for 18 hrs followed by incubation with compound for 3 hrs in presence of NADPH measured after 24 hrs in absence of compound, CYP3A4 and NADPH by cell titer-glo luminescence assay relative to BSO alone
Cytochrome P450 3A4 [10] = target: T3, Cytochrome P450 3A4; assay: Drug activation in human Hep3B cells assessed as human CYP3A4-mediated drug metabolism-induced cytotoxicity measured as decrease in cell viability at 69.6 uM pre-incubated with BSO for 18 hrs followed by incubation with compound for 3 hrs in presence of NADPH measured after 24 hrs in absence of compound, CYP3A4 and NADPH by cell titer-glo luminescence assay relative to BSO alone; assay type: ADME, cell-based
Cytochrome P450 2D6 [11] = target: T1, Cytochrome P450 2D6; assay: Drug activation in human Hep3B cells assessed as human CYP2D6-mediated drug metabolism-induced cytotoxicity measured as decrease in cell viability at 17.6 uM pre-incubated with BSO for 18 hrs followed by incubation with compound for 3 hrs in presence of NADPH measured after 24 hrs in absence of compound, CYP3A4 and NADPH by cell titer-glo luminescence assay relative to BSO alone; assay type: ADME, cell-based
Cytochrome P450 3A4 [12] = target: T3, Cytochrome P450 3A4; assay: Drug activation in human Hep3B cells assessed as human CYP3A4-mediated drug metabolism-induced cytotoxicity measured as decrease in cell viability at 90.1 uM pre-incubated with BSO for 18 hrs followed by incubation with compound for 3 hrs in presence of NADPH measured after 24 hrs in absence of compound, CYP3A4 and NADPH by cell titer-glo luminescence assay relative to BSO alone; assay type: ADME, cell-based
Cytochrome P450 2D6 [13] = target: T1, Cytochrome P450 2D6; assay: Drug activation in human Hep3B cells assessed as human CYP2D6-mediated drug metabolism-induced cytotoxicity measured as decrease in cell viability at 78.6 uM pre-incubated with BSO for 18 hrs followed by incubation with compound for 3 hrs in presence of NADPH measured after 24 hrs in absence of compound, CYP3A4 and NADPH by cell titer-glo luminescence assay relative to BSO alone; assay type: ADME, cell-based
Cytochrome P450 3A4 [14] = target: T3, Cytochrome P450 3A4; assay: Drug activation in human Hep3B cells assessed as human CYP3A4-mediated drug metabolism-induced cytotoxicity measured as decrease in cell viability at 25.3 uM pre-incubated with BSO for 18 hrs followed by incubation with compound for 3 hrs in presence of NADPH measured after 24 hrs in absence of compound, CYP3A4 and NADPH by cell titer-glo luminescence assay relative to BSO alone; assay type: ADME, cell-based
Cytochrome P450 2D6 [15] = target: T1, Cytochrome P450 2D6; assay: Drug activation in human Hep3B cells assessed as human CYP2D6-mediated drug metabolism-induced cytotoxicity measured as decrease in cell viability at 5.8 uM pre-incubated with BSO for 18 hrs followed by incubation with compound for 3 hrs in presence of NADPH measured after 24 hrs in absence of compound, CYP3A4 and NADPH by cell titer-glo luminescence assay relative to BSO alone; assay type: ADME, cell-based
Cytochrome P450 3A4 [16] = target: T3, Cytochrome P450 3A4; assay: Drug activation in human Hep3B cells assessed as human CYP3A4-mediated drug metabolism-induced cytotoxicity measured as decrease in cell viability at 22.2 uM pre-incubated with BSO for 18 hrs followed by incubation with compound for 3 hrs in presence of NADPH measured after 24 hrs in absence of compound, CYP3A4 and NADPH by cell titer-glo luminescence assay relative to BSO alone; assay type: ADME, cell-based
Cytochrome P450 3A4 [17] = target: T3, Cytochrome P450 3A4; assay: Drug activation in human Hep3B cells assessed as human CYP3A4-mediated drug metabolism-induced cytotoxicity measured as decrease in cell viability at 56.4 uM pre-incubated with BSO for 18 hrs followed by incubation with compound for 3 hrs in presence of NADPH measured after 24 hrs in absence of compound, CYP3A4 and NADPH by cell titer-glo luminescence assay relative to BSO alone; assay type: ADME, cell-based
Cytochrome P450 2D6 [18] = target: T1, Cytochrome P450 2D6; assay: Drug activation in human Hep3B cells assessed as human CYP2D6-mediated drug metabolism-induced cytotoxicity measured as decrease in cell viability at 65.4 uM pre-incubated with BSO for 18 hrs followed by incubation with compound for 3 hrs in presence of NADPH measured after 24 hrs in absence of compound, CYP3A4 and NADPH by cell titer-glo luminescence assay relative to BSO alone; assay type: ADME, cell-based

| SMILES | FC (Cytochrome P450 2D6 [6]) | FC (Cytochrome P450 2C9 [8]) | FC (Cytochrome P450 3A4 [9]) | also measured |
| --- | --- | --- | --- | --- |
| CNCCCN1c2ccccc2CCc2ccccc21 [DESIPRAMINE] |  |  |  | fold change (FC) (Cytochrome P450 2D6 [1]): 0.7; fold change (FC) (Cytochrome P450 2C9 [2]): 0.7; fold change (FC) (Cytochrome P450 3A4 [3]): 0.7 |
| CC(C)OC(=O)C(C)(C)Oc1ccc(C(=O)c2ccc(Cl)cc2)cc1 [FENOFIBRATE] |  |  |  | fold change (FC) (Cytochrome P450 2D6 [4]): 0.5; fold change (FC) (Cytochrome P450 3A4 [5]): 2.9; fold change (FC) (Cytochrome P450 2C9 [2]): 0.8 |
| CC(CCc1ccccc1)NCC(O)c1ccc(O)c(C(N)=O)c1 (stereo not given) [LABETALOL] | 1 | 1 |  | fold change (FC) (Cytochrome P450 3A4 [7]): 46 |
| CN(C)c1ccc(O)c2c1C[C@H]1C[C@H]3[C@H](N(C)C)C(O)=C(C(N)=O)C(=O)[C@@]3(O)C(O)=C1C2=O [MINOCYCLINE] | 1 | 1 | 1 |  |
| Cc1ccnc2c1NC(=O)c1cccnc1N2C1CC1 [NEVIRAPINE] | 1 | 1 | 1 |  |
| CNC(=C[N+](=O)[O-])NCCSCc1csc(CN(C)C)n1 [NIZATIDINE] | 1 | 1 | 1 |  |
| CN1Cc2c(N)cccc2C(c2ccccc2)C1 (stereo not given) [NOMIFENSINE] | 0.3 | 0.3 | 0.3 |  |
| CCCCCCCCCCC[C@@H](C[C@@H]1OC(=O)[C@H]1CCCCCC)OC(=O)[C@H](CC(C)C)NC=O [ORLISTAT] | 1 | 1 | 1 |  |
| CCOC(=O)C1=C[C@@H](OC(CC)CC)[C@H](NC(C)=O)[C@@H](N)C1 [OSELTAMIVIR] | 1 | 1 | 1 |  |
| Cl.Nc1ccc(/N=N/c2ccccc2)c(N)n1 [PHENAZOPYRIDINE HYDROCHLORIDE] |  | 1 |  | fold change (FC) (Cytochrome P450 3A4 [10]): 4.3; fold change (FC) (Cytochrome P450 2D6 [11]): 17 |
| CCc1ccc(CCOc2ccc(CC3SC(=O)NC3=O)cc2)nc1 (stereo not given) [PIOGLITAZONE] | 1 | 1 | 1 |  |
| CC[C@H](C)C(=O)O[C@H]1C[C@H](O)C=C2C=C[C@H](C)[C@H](CC[C@@H](O)C[C@@H](O)CC(=O)O)[C@H]21 [PRAVASTATIN] | 1 | 1 | 1 |  |
| CCC1(c2ccccc2)C(=O)NCNC1=O [PRIMIDONE] | 1 | 1 | 1 |  |
| NC(=O)c1cnccn1 [PYRAZINAMIDE] | 1 | 1 | 1 |  |
| CNC(=C[N+](=O)[O-])NCCSCc1ccc(CN(C)C)o1 [RANITIDINE] |  | 1 |  | fold change (FC) (Cytochrome P450 3A4 [12]): 3.3; fold change (FC) (Cytochrome P450 2D6 [13]): 3.8 |
| Cc1cn([C@H]2C=C[C@@H](CO)O2)c(=O)[nH]c1=O [STAVUDINE] | 1 | 1 | 1 |  |
| [H]/N=C(/N)N[C@H]1[C@H](O)[C@@H](O)[C@H](O[C@@H]2O[C@@H](C)[C@](O)(C=O)[C@H]2O[C@@H]2O[C@@H](CO)[C@H](O)[C@@H](O)[C@@H]2NC)[C@@H](N/C(N)=N\[H])[C@@H]1O [STREPTOMYCIN] | 1 | 1 | 1 |  |
| CC/C(=C(\c1ccccc1)c1ccc(OCCN(C)C)cc1)c1ccccc1 [TAMOXIFEN] |  |  |  | fold change (FC) (Cytochrome P450 3A4 [14]): 0.8 |
| Cc1nc(C)c2c(n1)N(Cc1ccc(-c3ccccc3-c3nnn[nH]3)cc1)C(=O)CC2 [TASOSARTAN] |  | 1 |  | fold change (FC) (Cytochrome P450 2D6 [15]): 52; fold change (FC) (Cytochrome P450 3A4 [16]): 13.5 |
| CN(C)[C@@H]1C(O)=C(C(N)=O)C(=O)[C@@]2(O)C(O)=C3C(=O)c4c(O)cccc4[C@@](C)(O)[C@H]3C[C@@H]12 [TETRACYCLINE] |  |  |  | fold change (FC) (Cytochrome P450 3A4 [17]): 2.9; fold change (FC) (Cytochrome P450 2D6 [18]): 2.5 |
| Nc1nc2nc[nH]c2c(=S)[nH]1 [THIOGUANINE] | 1 | 1 | 1 |  |
| Cc1ccc(C(=O)c2cc(O)c(O)c([N+](=O)[O-])c2)cc1 [TOLCAPONE] | 1 | 1 | 1 |  |
| CCCC(CCC)C(=O)O [VALPROIC ACID] | 1 | 1 | 1 |  |
| CC(=O)CC(c1ccccc1)c1c(O)c2ccccc2oc1=O (stereo not given) [WARFARIN] | 1 | 1 | 1 |  |
| Nc1ccn([C@H]2CC[C@@H](CO)O2)c(=O)n1 [ZALCITABINE] | 1 | 1 | 1 |  |
| Cc1cn([C@H]2C[C@H](N=[N+]=[N-])[C@@H](CO)O2)c(=O)[nH]c1=O [ZIDOVUDINE] | 1 | 1 | 1 |  |
